We go through 6 compounds from PubChem BioAssay AID1259411 (Chemical Carcinogenesis Research Information System (CCRIS), 2018).

The data set deals with rodent carcinogenicity bioassays, tumor incidence. The data set can be described thus: CCRIS carcinogenicity studies. In outline:
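Archive of carcinogenicity, mutagenicity, tumor promotion and tumor inhibition results drawn from journals, NCI reports and other sources, expert-reviewed; covers 1985-2011 and is no longer updated.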

The source made the active and inactive calls. The rule behind the calls is not given here.

Turning to `Nc1ccc(N=Nc2ccc(-c3ccc(N=Nc4c(S(=O)(=O)O)cc5c(c4N)C(=O)/C(=N/Nc4ccccc4)C(S(=O)(=O)O)=C5)cc3)cc2)c(N)c1`, the carcinogen call is “active; positive” (Species: MOUSE, Strain/Sex: ICR/MALE,FEMALE, Route: ORAL, Dose: 0, 0.3% IN DRINKING WATER FOR LIFE (STUDY DURATION: 50-60 WK), Tumor Site: Type of Lesion: LIVER: HEPATOCELLULAR CARCINOMA, MAMMARY GLAND: ADENOCARCINOMA OR SQUAMOUS CELL CARCINOMA); “active; positive” (Species: RAT, Strain/Sex: F344/FEMALE, Route: ORAL, Dose: 0, 190, 375, 750, 1500, 3000 PPM IN DIET FOR 91 D (STUDY DURATION:93 D), Dose: 0, 190, 375, 750, 1500, 3000 PPM IN DIET FOR 91 D (STUDY DURATION:93 D), Tumor Site: Type of Lesion: LIVER: NEOPLASTIC NODULE, FOCI OF CELLULAR ALTERATION OR BASOPHILIC FOCI); “active; positive” (Species: RAT, Strain/Sex: F344/MALE, Route: ORAL, Dose: 0, 190, 375, 750, 1500, 3000 PPM IN DIET FOR 91 D (STUDY DURATION: 93 D), Dose: 0, 190, 375, 750, 1500, 3000 PPM IN DIET FOR 91 D (STUDY DURATION: 93 D), Tumor Site: Type of Lesion: LIVER: HEPATOCELLULAR CARCINOMA OR NEOPLASTIC NODULE, FOCI OF CELLULAR ALTERATION OR BASOPHILIC FOCI).
Turning to `O=c1ccc(O)n[nH]1`, the carcinogen call (Species: Mouse, Strain/Sex: Charles River CD-1/Female (50/Group), Route: Oral, Dose: 0, 189, 598, 1811 mg/kg/day of 90% maleic hydrazide potassium salt in diet for 98 wk, study duration 98 wk, Dose: 0, 189, 598, 1811 mg/kg/day of 90% maleic hydrazide potassium salt in diet for 98 wk, study duration 98 wk) was “inactive; negative”; the carcinogen call (Species: Mouse, Strain/Sex: Charles River CD-1/Male (50/Group), Route: Oral, Dose: 0, 157, 509, 1545 mg/kg/day of 90% maleic hydrazide potassium salt in diet for 98 wk, study duration 98 wk, Dose: 0, 157, 509, 1545 mg/kg/day of 90% maleic hydrazide potassium salt in diet for 98 wk, study duration 98 wk) was “inactive; negative”; the carcinogen call (Species: Rat, Strain/Sex: Sprague-Dawley/Female (50/Group), Route: Oral, Dose: 0, 25, 500, 1000 mg/kg/day of 72.5-73.8% as maleic hydrazide in diet for 104 wk, study duration 104 wk, Dose: 0, 25, 500, 1000 mg/kg/day of 72.5-73.8% as maleic hydrazide in diet for 104 wk, study duration 104 wk) was “inactive; negative”; the carcinogen call (Species: Rat, Strain/Sex: Sprague-Dawley/Male (50/Group), Route: Oral, Dose: 0, 25, 500, 1000 mg/kg/day of 72.5-73.8% as maleic hydrazide in diet for 104 wk, study duration 104 wk, Dose: 0, 25, 500, 1000 mg/kg/day of 72.5-73.8% as maleic hydrazide in diet for 104 wk, study duration 104 wk) was “inactive; negative”.
Regarding `ClC(Cl)=C(Cl)C(Cl)=C(Cl)Cl`, the carcinogen call (Species: RAT, Strain/Sex: SPRAGUE-DAWLEY/MALE,FEMALE, Route: ORAL, Dose: 0.2, 2.0, 20 MG/KG/DAY IN DIET, Dose: 0.2, 2.0, 20 MG/KG/DAY IN DIET, Tumor Site: Type of Lesion: KIDNEY: RENAL TUBULAR ADENOMA, ADENOCARCINOMA) is “active; positive”.
Take `CC(O)CN(C)N=O` (configuration not stated): the carcinogen call (Species: HAMSTER, Strain/Sex: SYRIAN/FEMALE, Route: GAVAGE, Dose: 0, 1 MG IN 0.2 ML WATER 1/WK FOR 21 WK FOR A TOTAL DOSE OF 21 MG (STUDY DURATION: 45 WK), Tumor Site: Type of Lesion: LIVER: HEMANGIOSARCOMA OR HEMANGIOMA, LUNG: ALVEOLAR/BRONCHIOLAR ADENOMA, NASAL MUCOSA: CARCINOMA, Tumor Site: Type of Lesion: LIVER: HEMANGIOSARCOMA OR HEMANGIOMA, LUNG: ALVEOLAR/BRONCHIOLAR ADENOMA, NASAL MUCOSA: CARCINOMA) is “active; positive”; the carcinogen call (Species: HAMSTER, Strain/Sex: SYRIAN/FEMALE, Route: GAVAGE, Dose: 0, 5 MG IN 0.2 ML WATER FOR 4 WK THEN 2 MG 1/WK FOR 14 WK FOR A TOTAL DOSE OF 48 MG (STUDY DURATION: 45 WK), Tumor Site: Type of Lesion: LIVER: HEMANGIOSARCOMA, HEPATOCELLULAR ADENOMA, CHOLANGIOCELLULAR CARCINOMA, CHOLANGIOCELLULAR ADENOMA, PANCREAS: DUCTAL) is “active; positive”; the carcinogen call (Species: RAT, Strain/Sex: F344/FEMALE, Route: GAVAGE, Dose: 0, 4, 10 MG/WK FOR A TOTAL DOSE OF 0.6, 0.4 MMOL (STUDY DURATION: 50 WK), Dose: 0, 4, 10 MG/WK FOR A TOTAL DOSE OF 0.6, 0.4 MMOL (STUDY DURATION: 50 WK), Tumor Site: Type of Lesion: ESOPHAGUS: TUMOR, KIDNEY: TUMOR, THYROID: TUMOR, LUNG: TUMOR, Tumor Site: Type of Lesion: ESOPHAGUS: TUMOR, KIDNEY: TUMOR, THYROID: TUMOR, LUNG: TUMOR) is “active; positive”; the carcinogen call (Species: RAT, Strain/Sex: F344/MALE, Route: GAVAGE, Dose: 0, 4 MG/WK FOR A TOTAL DOSE OF 0.6 MMOL (STUDY DURATION: 50 WK), Tumor Site: Type of Lesion: ESOPHAGUS: TUMOR, NASAL MUCOSA: TUMOR) was “active; positive”; the carcinogen call (Species: RAT, Strain/Sex: WISTAR/MALE, Route: INTRAPERITONEAL, Dose: 0, 4.4, 8.8, 17.6 MG/KG IN 0.9% SALINE 1/WK FOR 12 WK (STUDY DURATION: 26 WK), Dose: 0, 4.4, 8.8, 17.6 MG/KG IN 0.9% SALINE 1/WK FOR 12 WK (STUDY DURATION: 26 WK), Tumor Site: Type of Lesion: NASAL CAVITY: CARCINOMA, PAPILLOMA) is “active; positive”.
Consider `C1CCOC1`, for which the carcinogen call reads like this: (Species: MOUSE, Strain/Sex: B6C3F1/FEMALE, Route: INHALATION, Dose: 0, 200, 600, 1800 PPM 6HR/D 5 D/WK FOR 105 WK (STUDY DURATION: 105 WK), Dose: 0, 200, 600, 1800 PPM 6HR/D 5 D/WK FOR 105 WK (STUDY DURATION: 105 WK), Tumor Site: Type of Lesion: LIVER: ADENOMA OR CARCINOMA) “active; positive”; (Species: MOUSE, Strain/Sex: B6C3F1/FEMALE, Route: INHALATION, Dose: 0, 200, 600, 1800 PPM 6 HR/D 5 D/WK FOR 105 WK (STUDY DURATION: 105 WK), Dose: 0, 200, 600, 1800 PPM 6 HR/D 5 D/WK FOR 105 WK (STUDY DURATION: 105 WK), Tumor Site: Type of Lesion: LIVER: HEPATOCELLULAR ADENOMA, HEPATOCELLULAR CARCINOMA) “active; positive”; (Species: MOUSE, Strain/Sex: B6C3F1/MALE, Route: INHALATION, Dose: 0, 200, 600, 1800 PPM 6 HR/D 5 D/WK FOR 105 WK (STUDY DURATION: 105 WK), Dose: 0, 200, 600, 1800 PPM 6 HR/D 5 D/WK FOR 105 WK (STUDY DURATION: 105 WK)) “inactive; negative”; (Species: RAT, Strain/Sex: F344/FEMALE, Route: INHALATION, Dose: 0, 200, 600, 1800 PPM 6 HR/D 5 D/WK FOR 105 WK (STUDY DURATION: 105 WK), Dose: 0, 200, 600, 1800 PPM 6 HR/D 5 D/WK FOR 105 WK (STUDY DURATION: 105 WK)) “inactive; negative”; (Species: RAT, Strain/Sex: F344/MALE, Route: INHALATION, Dose: 0, 200, 600, 1800 PPM 6 HR/D 5 D/WK FOR 105 WK (STUDY DURATION: 105 WK), Dose: 0, 200, 600, 1800 PPM 6 HR/D 5 D/WK FOR 105 WK (STUDY DURATION: 105 WK), Tumor Site: Type of Lesion: KIDNEY: RENAL TUBULE ADENOMA OR CARCINOMA) “active; positive”.
In the case of `CN(C)c1ccc2nc3ccc(=[N+](C)C)cc-3sc2c1`, the carcinogen call was “equivocal” (Species: Mouse, Strain/Sex: B6C3F1/Female, Route: Oral, Dose: 0, 2.5, 12.5, 25 mg/kg 5 d per wk for 2 yr, Dose: 0, 2.5, 12.5, 25 mg/kg 5 d per wk for 2 yr, Tumor Site: Type of Lesion: Lymphatic system: Malignant lymphomas (6/50; 4/50; 9/50; 12/50) (Marginal increase)); “active; positive (for lymphoma only at high does) (ntp describes results as some evidenc” (Species: Mouse, Strain/Sex: B6C3F1/Male, Route: Oral, Dose: 0, 2.5, 12.5, 25 mg/kg 5 d per wk for 2 yr, Dose: 0, 2.5, 12.5, 25 mg/kg 5 d per wk for 2 yr, Tumor Site: Type of Lesion: Small intestine: Carcinomas (0/50; 1/50; 2/50; 4/50), Adenomas or carcinomas (1/50; 2/50; 4/50; 6/50) (incidences not st, Tumor Site: Type of Lesion: Small intestine: Carcinomas (0/50; 1/50; 2/50; 4/50), Adenomas or carcinomas (1/50; 2/50; 4/50; 6/50) (incidences not st); “inactive; negative” (Species: Rat, Strain/Sex: F344/Female, Route: Oral, Dose: 0, 5, 25, 50 mg/kg 5 d per wk for 2 yr, Dose: 0, 5, 25, 50 mg/kg 5 d per wk for 2 yr); “active; positive (statistically significant only at 25 mg/kg dose) (ntp describes as som” (Species: Rat, Strain/Sex: F344/Male, Route: Oral, Dose: 0, 5, 25, 50 mg/kg 5 d per wk for 2 yr, Dose: 0, 5, 25, 50 mg/kg 5 d per wk for 2 yr, Tumor Site: Type of Lesion: Pancreas: Pancreatic islet adenomas (4/50; 9/50; 12/50; 8/50), Pancreatic islet adenomas or carcinomas (4/50, 9/50, 14/5, Tumor Site: Type of Lesion: Pancreas: Pancreatic islet adenomas (4/50; 9/50; 12/50; 8/50), Pancreatic islet adenomas or carcinomas (4/50, 9/50, 14/5).
